This is an account of results in ChEMBL document CHEMBL2375305, “Synthesis of novel triterpene and N-allylated/N-alkylated niacin hybrids as α-glucosidase inhibitors” (Eur J Med Chem, 2013).

SMILES strings stand for the structures. pIC50: −log10 of the molar value. Active and inactive are the calls of the source. The rule behind the calls is not given here.

In general, inhibition refers to the drop in the measured response relative to a control, in per cent. As a reminder, the pIC50 is the negative decadic logarithm of the IC50, by convention in mol/L.

The species entered for experiment [1] is Homo sapiens. As to the kind of experiment: Binding affinity to alpha-glucosidase (unknown origin) assessed as loss in secondary structure at 50 to 250 uM measured every 1 sec for 1 to 2 mins by CD spectroscopic analysis.
The species entered for experiment [2] is Homo sapiens. The experiment in a line: Non-competitive inhibition of alpha-glucosidase (unknown origin) using PNPG as substrate at 2 to 6 uM by Lineweaver-Burk plot analysis.
A further experiment relates to Rattus norvegicus. As to the kind of experiment: Antihyperglycemic activity in sucrose-loaded STZ-induced diabetic rat model assessed as reduction in blood glucose level at 100 mg/kg, po administered 30 mins followed by sucrose administration measured after 5 hrs relative to vehicle-treated control. The class given is functional. On the set-up: scale not given: the % may be the effect or the level left.

The nature of experiment [3]: (§1) Inhibition of alpha-glucosidase (unknown origin) using PNPG as substrate incubated for 10 mins prior to substrate addition measured every 30 secs for 5 mins relative to control. Set-up: species or system Homo sapiens.
The species entered for experiment [4] is Homo sapiens. Described as §1.
The species entered for experiment [5] is Homo sapiens. As to the kind of experiment: Ratio of compound activity to acarbose activity for inhibition of alpha-glucosidase (unknown origin).
For experiment [6], the species on record is Homo sapiens. As to the kind of experiment: Inhibition of alpha-glucosidase (unknown origin) using PNPG as substrate at 100 uM incubated for 10 mins prior to substrate addition measured every 30 secs for 5 mins relative to control.

As for `CC(C)=CC[n+]1cccc(C(=O)O[C@H]2CC[C@]3(C)[C@H]4CC=C5[C@@H]6[C@@H](C)[C@H](C)CC[C@]6(C)CC[C@@]5(C)[C@]4(C)CC[C@H]3C2(C)C)c1.[Br-]`, the outcome in the experiment filed under Homo sapiens [1] was Active. For the same compound, the inhibition entry in the experiment filed under Homo sapiens [2] was “Active”. Also, the Activity in the experiment on Rattus norvegicus came out at 19.9%. In experiment [3], this compound gave a pIC50 of 5.30. In the experiment listed under Homo sapiens [4], the inhibition result is “Dose-dependent effect”. Further, the Ratio in the experiment filed under Homo sapiens [5] stood at 10.

Turning to `CCCCCCCCCCCCCCCC[n+]1cccc(C(=O)O[C@H]2CC[C@]3(C)[C@H]4CC=C5[C@@H]6[C@@H](C)[C@H](C)CC[C@]6(C)CC[C@@]5(C)[C@]4(C)CC[C@H]3C2(C)C)c1`, in the experiment filed under Homo sapiens [4], the inhibition entry is “Dose-dependent effect”. With `C=C(C)[C@@H]1CC[C@]2(C)CC[C@]3(C)[C@@H](CC[C@@H]4[C@@]5(C)CC[C@H](OC(=O)c6ccc[n+](CC=C(C)C)c6)C(C)(C)[C@@H]5CC[C@]43C)[C@H]12`, the inhibition in the experiment filed under Homo sapiens [6] is -4.4%. In the case of `C=C(C)[C@@H]1CCC2(C)CC[C@]3(C)[C@@H](CC[C@@H]4[C@@]5(C)CC[C@H](OC(=O)c6ccc[n+](CCCCCCCCCCCC)c6)C(C)(C)[C@@H]5CC[C@]43C)[C@H]12` (single isomer, unassigned), the inhibition in the experiment filed under Homo sapiens [6] stood at 8.8%. Regarding `C=C(C)[C@@H]1CC[C@]2(C)CC[C@]3(C)[C@@H](CC[C@@H]4[C@@]5(C)CC[C@H](OC(=O)c6ccc[n+](CCCCCCCCCCCCCCCC)c6)C(C)(C)[C@@H]5CC[C@]43C)[C@H]12`, the inhibition in the experiment filed under Homo sapiens [6] was determined as 4.5%. Regarding `CCCCCCCCCCCC[n+]1cccc(C(=O)O[C@H]2CC[C@]3(C)[C@H]4CC=C5[C@@H]6[C@@H](C)[C@H](C)CC[C@]6(C)CC[C@@]5(C)[C@]4(C)CC[C@H]3C2(C)C)c1`, the inhibition result in the experiment listed under Homo sapiens [4] is “Dose-dependent effect”.

For `C=C(C)[C@@H]1CC[C@]2(C)CC[C@]3(C)[C@@H](CC[C@@H]4[C@@]5(C)CC[C@H](OC(=O)c6ccc[n+](C/C=C(\C)CCC=C(C)C)c6)C(C)(C)[C@@H]5CC[C@]43C)[C@H]12`, the inhibition in the experiment filed under Homo sapiens [6] came out at 3.8%. As to `CCCCCCCCCCCCC[n+]1cccc(C(=O)O[C@H]2CC[C@]3(C)[C@H]4CC=C5[C@@H]6[C@@H](C)[C@H](C)CC[C@]6(C)CC[C@@]5(C)[C@]4(C)CC[C@H]3C2(C)C)c1`, the inhibition entry in the experiment filed under Homo sapiens [4] is “Dose-dependent effect”.
